Assay results published in PubChem BioAssay (NCI).
“And” between values parts separate entries of the source, which are not always exact repeats. Identical values can stand only once.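 Assay format: 96-well plates, 48-hour exposure. GI50 is the concentration that inhibits growth by half. TGI: concentration producing complete growth inhibition.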

Columns and labels:
Experiment in all cases: NCI-60 cell line screen, 48 h
SK-MEL-28 melanoma = tested on: SK-MEL-28 melanoma
SNB-19 CNS = tested on: SNB-19 CNS
COLO 205 colon = tested on: COLO 205 colon
NCI/ADR-RES ovarian = tested on: NCI/ADR-RES ovarian
TK-10 renal = tested on: TK-10 renal
HT29 colon = tested on: HT29 colon
RPMI-8226 leukemia = tested on: RPMI-8226 leukemia
A498 renal = tested on: A498 renal
OVCAR-4 ovarian = tested on: OVCAR-4 ovarian
NCI-H522 lung = tested on: NCI-H522 lung

| Structure (SMILES) | GI50 (SK-MEL-28 melanoma) | TGI (SK-MEL-28 melanoma) | GI50 (SNB-19 CNS) | TGI (SNB-19 CNS) | GI50 (COLO 205 colon) | TGI (COLO 205 colon) | GI50 (NCI/ADR-RES ovarian) | TGI (NCI/ADR-RES ovarian) | GI50 (TK-10 renal) | TGI (TK-10 renal) | GI50 (HT29 colon) | TGI (HT29 colon) | GI50 (RPMI-8226 leukemia) | TGI (RPMI-8226 leukemia) | GI50 (A498 renal) | TGI (A498 renal) | GI50 (OVCAR-4 ovarian) | TGI (OVCAR-4 ovarian) | GI50 (NCI-H522 lung) | TGI (NCI-H522 lung) |
| --- | --- | --- | --- | --- | --- | --- | --- | --- | --- | --- | --- | --- | --- | --- | --- | --- | --- | --- | --- | --- |
| COc1ccc(/C=C/C(=O)c2cc3c(N)c(C(=O)Nc4ccc(OC)cc4)sc3nc2C)cc1 | 0.4 µM | > 50 µM | 0.746 µM | > 41.3 µM | 0.158 µM | 0.609 µM | 0.185 µM | 1.49 µM | 2.85 µM | > 50 µM | 404 nM | > 28.4 µM | 0.348 µM | > 34 µM | 0.108 µM | 0.41 µM | 0.324 µM | > 50 µM | 0.178 µM | > 26.5 µM |
| COc1cc(NC2CCCCC2O)c2nc(-c3ccc(Cl)cc3)ccc2c1 (stereo not drawn) | 14.4 µM | > 100 µM | 21.7 µM | > 100 µM | 6.87 µM | 20.7 µM | 6.1 µM | > 100 µM | 14.6 µM | > 100 µM | 4290 nM | 23.8 µM | 3.66 µM | 25 µM | 6.66 µM | 34.8 µM | 10.1 µM | > 100 µM | 4.83 µM | > 100 µM |
| Nn1c(-c2ccc(Cl)cc2)nc2c(-c3ccc(Cl)cc3)nc3ccc(Cl)cc3c2c1=O | 49.6 µM | > 100 µM | 9.06 µM | 47.7 µM | 19.5 µM | > 100 µM | 48.3 µM | > 100 µM | 22.4 µM | 58.4 µM | > 100000 nM | > 100 µM | 4.14 µM | 26.3 µM | 36 µM | 75.7 µM | 3.55 µM | 15.1 µM | 20.9 µM | > 100 µM |
| O=C(O)c1ccccc1NCn1c(=S)sc2ccccc21 | – | > 100 µM | – | > 100 µM | – | 56.7 µM | – | > 100 µM | – | > 100 µM | – | > 100 µM | – | 95.4 µM | – | > 100 µM | – | > 100 µM | – | 78.3 µM |
| COc1cc2c3cc1Oc1c(OC)c(OC)cc4c1C(Cc1ccc(O)c(c1)Oc1ccc(cc1)CC3N(C)CC2)N(C)CC4 (stereo not drawn) | 8.49 µM | > 100 µM and 23.1 µM | 31.5 µM | 65.8 µM and > 100 µM | 14.3 µM | > 100 µM and 30.4 µM | – | > 100 µM | 20.8 µM | > 100 µM and 39.3 µM | 1780 nM | > 100 µM and 32.8 µM | 11.8 µM | 40.1 µM | – | 48.4 µM | 15.3 µM | > 100 µM and 50.7 µM | 13.4 µM | > 100 µM and 30.4 µM |
| C[As](C)SC1OCC(O)C(O)C1O (stereo not drawn) | 0.387 µM | 3.33 µM | 4.22 µM | 27.4 µM | 0.747 µM | 3.37 µM | 0.138 µM | 0.602 µM | < 0.0258 µM | 0.19 µM | 260 nM | > 100 µM | 0.0537 µM | 0.604 µM | 0.316 µM | 1.22 µM | 1.09 µM | 7.63 µM | 0.0712 µM | 0.211 µM |
| COc1cc2c(c(OC)c1OC)C(=O)NCCC2 | – | > 100 µM | – | > 100 µM | – | > 100 µM | – | > 100 µM | – | > 100 µM | – | > 100 µM | – | > 100 µM | – | > 100 µM | – | > 100 µM | – | > 100 µM |
